Laboratory results as given in patent US20050089495A1, “Transdermal transport of compounds” (priority 2001, published 2005).
Structures can show the parent of a compound that is named as a salt.

What was measured:
[1] = females using the patches; cited from earlier work
[2] = Acute transdermal penetration of 3H-Estradiol and 3H-Estradiol Phosphate in the hairless rat model; type: in vivo, female albino hairless rats; conditions: 24-hour period
[3] = Transdermal delivery of estradiol and estradiol phosphate in the hairless rat model; total estrogens RIA in plasma
[4] = Transdermal delivery of testosterone and testosterone phosphate in the hairless rat model; total testosterone in plasma; conditions: topical carrier cream; for concentration of testosterone in blood after application: 1 μg
rats = experiment: Efficacy of atropine phosphate compared to atropine sulfate: heart rate after intravenous administration; type: in vivo; conditions: for heart rate after administration: IV 2 mg/kg in phosphate buffer, baseline approx. 350 bpm
Procedure: The efficacy of atropine phosphate when compared to atropine sulfate was investigated in this example.
Atropine sulfate and atropine phosphate formulated in phosphate buffer and given intravenously (IV) each to two rats at 2 mg/kg resulted similar increases in heart rates.
For example, the baseline heart rate of a rat was approx. 350 bpm and increased to 450 bpm within 15 minutes after administration of atropine (either atropine phosphate or atropine sulfate). Approximately two hours later, normal heart rates were restored. This is regarded as a significant change in pulse rate.

Compound	concentration of testosterone in blood after application [4]	time until normal heart rates were restored (rats; IV 2 mg/kg)	heart rate after administration (rats) [bpm]	also measured
C[C@]12CC[C@@H]3c4ccc(O)cc4CC[C@H]3[C@@H]1CC[C@@H]2O [E, Estradiol]				females reporting skin irritation [1]: up to 17%
C[C@]12CC[C@@H]3c4ccc(O)cc4CC[C@H]3[C@@H]1CC[C@@H]2OP(=O)(O)O [EP, Estradiol Phosphate]				levels in the epidermis and dermis [2]: Higher levels; plasma concentration of the hormone compared to the E treatment ([3]; equivalent doses applied, 24-hour period): at least twice; concentration of estradiol in blood versus estradiol application ([3]; over a 24-hour period, P<0.01 at 2, 4 and 16 hours): consistently higher
C[C@]12CC[C@H]3[C@@H](CCC4=CC(=O)CC[C@@]43C)[C@@H]1CC[C@@H]2O [T, Testosterone]	increased			maximum concentration of total testosterone in plasma (mean±SD) ([4]; 1 μg on about 4 cm^2 dorsal skin, baseline t=0 subtracted): 30.90 ± 11.00 pg/mL
CN1[C@@H]2CC[C@H]1CC(OC(=O)C(CO)c1ccccc1)C2.O=P(O)(O)O (stereo partly drawn) [atropine phosphate]		Approximately two	450	effect on pulse rate (rats; IV 2 mg/kg): effective to increase pulse rate
CN1[C@@H]2CC[C@H]1C[C@@H](OC(=O)C(CO)c1ccccc1)C2 (stereo partly drawn) [atropine sulfate, reference compound]		Approximately two	450	
Testosterone Phosphate [TP]	increased			
